Values of other authors, collected in patent publication US6716451B1 (Soft Gel Technologies, Inc., priority 1999, dated 2004).
Read-outs that look alike come from different tables or passages of the source.

Tests used:
[1] = subjects taking at least 100 IU daily; more than 12,000 adults
human breast cancer cell = conditions: in vitro

Row | Compound | decrease in heart disease risk [1] | adverse effects (50 mg/day for 1 to 8.2 years, cardiovascular clinical studies) | adverse effects (oral 50 to 400 IU per day, double-blind clinical studies) | inhibition of growth of human breast cancer cells compared with Tamoxifen (human breast cancer cell)
1 | Vitamin E | 40% | without any adverse effects | did not show any adverse effects | –
2 | CC(C)=CCC/C(C)=C/CC/C(C)=C/CC[C@]1(C)CCc2cc(O)c(C)c(C)c2O1 [γ-tocotrienol] | – | – | – | more effectively than the popular breast cancer drug, Tamoxifen
